Measurements from ChEMBL document CHEMBL4130624, “Optimization of 1,4-Oxazine β-Secretase 1 (BACE1) Inhibitors Toward a Clinical Candidate” (J Med Chem, 2018).

Assays:
[1] = Drug metabolism in mouse liver microsomes at 1 uM after 15 mins in presence of NADPH by HPLC-MS/MS analysis; assay type: ADME, microsome; details: read-out: Drug metabolism
[2] = Drug metabolism in human liver microsomes at 1 uM after 15 mins in presence of NADPH by HPLC-MS/MS analysis; assay type: ADME, microsome; details: read-out: Drug metabolism
Beta-secretase 1 [3] = biological target: T1, Beta-secretase 1 (Homo sapiens, UniProt P56817); assay: Inhibition of BACE1 (1 to 454 residues) (unknown origin) using APP derived polypeptide harboring Lys-Met/Asn-Leu mutation as substrate by FRET assay
Beta-secretase 1 [4] = biological target: T1, Beta-secretase 1; assay: Inhibition of BACE1 in human SKNBE2 cells transfected with APP695 protein assessed as reduction in amyloid beta (1 to 42) levels after 18 hrs by sandwich alphalisa assay; assay type: cell-based
[5] = tested on: MDR1 (P-gp) (Homo sapiens); assay: Apparent permeability across apical to basolateral side in pig LLC cells transfected with human MDR1 at 5 uM in absence of elacridar by LC-MS/MS analysis; details: LLC-PK1
[6] = Fraction unbound in mouse plasma at 5 uM after 4.5 hrs by HPLC-MS/MS method based rapid equilibrium dialysis; assay type: ADME, cell-free
Mus musculus [7] = assay: Antialzheimer activity in CD1 Swiss specific pathogen free mouse assessed as reduction in amyloid beta (1 to 40) levels at 10 mg/kg, po measured after 2 hrs post dose by ELISA; assay type: functional; parameters: scale not given: the % may be the effect or the level left
[8] = Dissociation constant, pKa of the compound at 25 degC by potentiometric titration assay; assay type: physicochemical
hERG (KCNH2) = hERG (KCNH2) (Homo sapiens, UniProt Q12809); assay: Inhibition of human ERG expressed in HEK293 cells assessed as reduction in outward potassium current at 3 uM at holding potential was -80 mV after 5 mins by patch clamp assay; assay type: cell-based; details: HEK293 cells that express hERG
[9] = Ratio of total drug level in brain to plasma of in CD1 Swiss specific pathogen free mouse at 10 mg/kg, po after 4 hrs; assay type: ADME, organism-based
Mus musculus [10] = assay: Antialzheimer activity in CD1 Swiss specific pathogen free mouse assessed as reduction in amyloid beta (1 to 40) levels at 10 mg/kg, po measured after 1 hr post dose by ELISA; assay type: functional; parameters: scale not given: the % may be the effect or the level left
Mus musculus [11] = assay: Antialzheimer activity in CD1 Swiss specific pathogen free mouse assessed as reduction in amyloid beta (1 to 40) levels at 10 mg/kg, po measured after 4 hrs post dose by ELISA; assay type: functional; parameters: scale not given: the % may be the effect or the level left
[12] = biological target: Voltage-gated inwardly rectifying potassium channel KCNH2 (Homo sapiens, UniProt Q12809); assay: Inhibition of human ERG expressed in HEK293 cell membranes by radioligand binding assay
[13] = Fraction unbound in rat brain at 5 uM after 5 hrs by HPLC-MS/MS method based rapid equilibrium dialysis; assay type: ADME, tissue-based
[14] = Ratio of total unbound drug level in brain to plasma of in CD1 Swiss specific pathogen free mouse at 10 mg/kg, po after 4 hrs; assay type: ADME, organism-based; details: read-out: K(p,uu,brain)
[15] = Drug uptake in mouse brain at 30 mg/kg, po measured at 2 to 4 hrs; assay type: ADME, organism-based; details: in vivo
[16] = Drug metabolism in mouse liver hepatocytes at 1 uM after 60 mins in presence of NADPH by HPLC-MS/MS analysis; assay type: ADME, cell-based, Hepatocyte; details: read-out: Drug metabolism
[17] = Drug uptake in mouse brain at 10 mg/kg, po measured at 2 to 4 hrs; assay type: ADME, organism-based; details: in vivo
[18] = Plasma concentration in mouse at 10 mg/kg, po after 4 hrs; assay type: ADME, organism-based
Canis familiaris = assay: Antialzheimer activity in po dosed Beagle dog assessed as reduction in amyloid beta (1 to 40) levels measured after 1 hr post dose by ELISA; assay type: functional, organism-based, Canis lupus familiaris
[19] = Cmax in anesthetized guinea pig; assay type: ADME, organism-based, Cavia porcellus; details: in vivo
Cavia porcellus = assay: Cardiotoxicity in anesthetized guinea pigs assessed as drug level causing QTcB prolongation dosed up to 10 mg/kg, iv administered over a period of 5 min at 15 min interval by ECG analysis; assay type: toxicity, organism-based; details: guinea pig, in vivo
TK6 [20] = assay: Genotoxicity in human TK6 cells up to […] after 24 hrs in absence of rat liver S9 fraction by micronucleus assay; assay type: toxicity, cell-based; details: tk6, 24 h
TK6 [21] = assay: Genotoxicity in human TK6 cells at 500 ug/ml after 24 hrs in presence of rat liver S9 fraction by micronucleus assay; assay type: toxicity, cell-based; details: s9, 24 h
HepG2 = assay: Cytotoxicity against human HepG2 cells assessed as effect on cell health indicators after 72 hrs by automated fluorescence microscopy based high content screening based assay; assay type: ADME; details: hepg2, 72 h

T1 sequence (P56817 whole entry, the tested form may be a part): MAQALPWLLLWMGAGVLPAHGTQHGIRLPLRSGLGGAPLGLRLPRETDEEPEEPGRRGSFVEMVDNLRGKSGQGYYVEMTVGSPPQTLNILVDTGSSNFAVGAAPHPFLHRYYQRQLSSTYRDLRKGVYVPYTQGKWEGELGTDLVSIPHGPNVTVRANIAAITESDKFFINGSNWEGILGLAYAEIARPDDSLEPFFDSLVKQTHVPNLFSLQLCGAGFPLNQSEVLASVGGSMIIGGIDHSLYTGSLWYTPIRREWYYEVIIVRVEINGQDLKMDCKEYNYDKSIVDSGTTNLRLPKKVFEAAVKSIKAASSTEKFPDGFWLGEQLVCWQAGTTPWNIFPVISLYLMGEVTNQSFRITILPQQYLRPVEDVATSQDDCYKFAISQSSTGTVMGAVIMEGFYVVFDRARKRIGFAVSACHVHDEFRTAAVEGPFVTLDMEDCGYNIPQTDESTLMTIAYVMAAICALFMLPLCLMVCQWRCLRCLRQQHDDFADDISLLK
Chain of Voltage-gated inwardly rectifying potassium channel KCNH2 (Q12809 whole entry): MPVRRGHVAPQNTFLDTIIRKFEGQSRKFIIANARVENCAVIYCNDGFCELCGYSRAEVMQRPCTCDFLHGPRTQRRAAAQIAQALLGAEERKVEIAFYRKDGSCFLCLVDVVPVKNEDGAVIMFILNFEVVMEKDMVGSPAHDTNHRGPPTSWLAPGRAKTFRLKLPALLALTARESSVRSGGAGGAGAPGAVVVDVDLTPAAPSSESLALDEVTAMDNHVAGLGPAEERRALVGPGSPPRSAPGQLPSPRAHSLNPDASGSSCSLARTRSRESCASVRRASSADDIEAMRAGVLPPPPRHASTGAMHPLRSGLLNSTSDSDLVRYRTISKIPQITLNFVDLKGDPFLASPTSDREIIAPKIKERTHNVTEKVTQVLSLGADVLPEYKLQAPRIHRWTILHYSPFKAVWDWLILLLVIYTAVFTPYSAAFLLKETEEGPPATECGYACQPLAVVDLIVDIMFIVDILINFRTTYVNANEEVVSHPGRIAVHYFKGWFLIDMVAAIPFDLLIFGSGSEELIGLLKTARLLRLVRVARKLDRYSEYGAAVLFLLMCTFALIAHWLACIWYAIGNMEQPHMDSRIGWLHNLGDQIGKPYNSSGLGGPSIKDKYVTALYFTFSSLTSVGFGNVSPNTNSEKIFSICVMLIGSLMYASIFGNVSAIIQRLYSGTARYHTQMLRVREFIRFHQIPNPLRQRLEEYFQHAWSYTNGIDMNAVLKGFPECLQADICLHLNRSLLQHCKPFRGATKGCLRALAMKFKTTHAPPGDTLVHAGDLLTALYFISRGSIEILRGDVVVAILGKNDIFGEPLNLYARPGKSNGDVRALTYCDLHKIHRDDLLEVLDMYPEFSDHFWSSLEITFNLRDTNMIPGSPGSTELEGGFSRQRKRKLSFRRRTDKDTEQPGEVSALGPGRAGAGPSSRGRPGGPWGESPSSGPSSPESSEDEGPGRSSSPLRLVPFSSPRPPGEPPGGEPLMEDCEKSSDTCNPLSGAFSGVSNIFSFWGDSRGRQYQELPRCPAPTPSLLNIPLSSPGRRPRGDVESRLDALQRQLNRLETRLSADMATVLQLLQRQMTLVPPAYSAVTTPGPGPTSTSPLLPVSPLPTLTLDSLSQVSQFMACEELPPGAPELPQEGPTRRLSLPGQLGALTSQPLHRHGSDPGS
Chain of hERG (KCNH2) (Q12809 whole entry): as above

Row | Structure (SMILES) | metabolised at 0.25 h, 1 µM [1] [%] | metabolised at 0.25 h, 1 µM [2] [%] | IC50 (Beta-secretase 1 [3]) [nM] | IC50 (Beta-secretase 1 [4]) [nM] | inhibition at 5 min, 3 µM (hERG (KCNH2)) [%] | IC50 [12] [nM] | other results
1 | C[C@]1(c2cc(-c3cncnc3)ccc2F)N=C(N)CO[C@H]1C(F)(F)F (racemic) | 51 | 7 | 1860 | 631 | – | – | –
2 | COc1cnc(C(=O)Nc2ccc(F)c([C@@]3(C)N=C(N)CO[C@H]3C(F)F)c2)cn1 | – | – | 11.4 | 4.9 | 24 | > 10000 | Papp A→B at 5 µM [5]: 4.8 ×10⁻⁶ cm/s; fraction unbound at 4.5 h, 5 µM [6]: 0.279; Activity (Mus musculus [7]): 38%; pKa [8]: 8.4; Kp at 4 h [9]: 0.4; Activity (Mus musculus [10]): 11%; Activity (Mus musculus [11]): 40%; fraction unbound at 5 h, 5 µM [13]: 0.047; Kp uu at 4 h [14]: 0.07
3 | C[C@]1(c2cc(NC(=O)c3ncc(C#N)cc3F)ccc2F)N=C(N)CO[C@@H]1F | 19 | 11 | 18.4 | 12.2 | 24 | > 10000 | Papp A→B at 5 µM [5]: 1.05 ×10⁻⁶ cm/s; Drug uptake [15]: Not Active
4 | C[C@]1(c2cc(NC(=O)c3ncc(C#N)cc3Cl)ccc2F)N=C(N)CO[C@@H]1F | 0 | 1 | 10.7 | 15.5 | 19 | > 10000 | Papp A→B at 5 µM [5]: 3.06 ×10⁻⁶ cm/s; metabolised at 1 h, 1 µM [16]: 55%; Drug uptake [17]: Not Active; concentration at 4 h [18]: 38 ng/mL
5 | COCCOc1cnc(C(=O)Nc2ccc(F)c([C@@]3(C)N=C(N)CO[C@H]3C(F)(F)F)c2)cn1 | 59 | 56 | 40.7 | 12.5 | – | – | –
6 | C[C@]1(c2cc(NC(=O)c3ccc(C#N)cn3)ccc2F)N=C(N)CO[C@@H]1F | – | – | – | – | – | 8000 | fEC50 (Canis familiaris): 0.023 µM; Cmax [19]: 475 ng/mL; metabolised at 1 h, 1 µM [16]: 0%; LOAEL (Cavia porcellus): 475 ng/mL; fLOAEL (Cavia porcellus): 0.55 µM; fNOAEL (Cavia porcellus): 0.2 µM
7 | C[C@]1(c2cc(N)ccc2F)N=C(N)CO[C@H]1C(F)(F)F | – | – | – | – | – | – | Activity (TK6 [20]): Non-Toxic; Activity (TK6 [21]): Non-Toxic
8 | C[C@]1(c2cc(NC(=O)c3cnc(NCC(F)(F)F)cn3)ccc2F)N=C(N)CO[C@H]1C(F)(F)F | – | – | > 10000 | 4500 | – | – | –
9 | C[C@]1(c2cc(NC(=O)c3cnc(NC4CC4)cn3)ccc2F)N=C(N)CO[C@H]1C(F)(F)F | – | – | 3020 | 603 | – | – | –
10 | C[C@]1(c2cc(NC(=O)c3ncc(C#N)cc3Cl)ccc2F)N=C(N)CO[C@H]1C(F)(F)F | 38 | 38 | – | – | 13 | – | –
11 | COc1cnc(C(=O)Nc2ccc(F)c([C@@]3(C)N=C(N)COC3=C(F)F)c2)cn1 | – | – | 151 | 35.1 | – | > 10000 | Papp A→B at 5 µM [5]: 8.63 ×10⁻⁶ cm/s; fraction unbound at 4.5 h, 5 µM [6]: 0.146; Activity (Mus musculus [7]): 6%; pKa [8]: 7.9; Kp at 4 h [9]: 0.97; Activity (Mus musculus [11]): 7%; fraction unbound at 5 h, 5 µM [13]: 0.017; Kp uu at 4 h [14]: 0.11
12 | COc1cnc(C(=O)Nc2ccc(F)c([C@@]3(C)N=C(N)CO[C@H]3C(F)(F)F)c2)cn1 | 19 | 2 | – | – | 19 | > 10000 | Papp A→B at 5 µM [5]: 13.7 ×10⁻⁶ cm/s; fraction unbound at 4.5 h, 5 µM [6]: 0.155; Activity (Mus musculus [7]): 37%; pKa [8]: 7.8; Kp at 4 h [9]: 1.81; Activity (Mus musculus [10]): 23%; Activity (Mus musculus [11]): 29%; MTC (HepG2): 15.6 µM; fraction unbound at 5 h, 5 µM [13]: 0.02; Kp uu at 4 h [14]: 0.23
13 | COc1cnc(C(=O)Nc2ccc(F)c([C@@]3(C)N=C(N)CO[C@@H]3F)c2)cn1 | – | – | – | – | – | > 10000 | Activity (Mus musculus [7]): 65%; Kp at 4 h [9]: 0.6; Activity (Mus musculus [10]): 39%; Kp uu at 4 h [14]: 0.09
14 | C[C@]1(c2cc(NC(=O)c3ccc(Cl)cn3)ccc2F)N=C(N)CO[C@H]1C(F)(F)F | 48 | 0 | – | – | 27 | – | MTC (HepG2): 13.6 µM
15 | C[C@]1(c2cc(NC(=O)c3cnc(OCC(F)(F)F)cn3)ccc2F)N=C(N)CO[C@H]1C(F)(F)F | – | – | 24.5 | 20.9 | – | – | –
16 | C[C@@]1(c2cc(N/C=C/c3ccc(C#N)cn3)ccc2F)COCC(N)=N1 | – | – | 2340 | 251 | – | – | –
17 | C[C@]1(c2cc(NC(=O)c3cnc(N4CCC4)cn3)ccc2F)N=C(N)CO[C@H]1C(F)(F)F | – | – | 457 | 115 | – | – | –
18 | C[C@]1(c2cc(NC(=O)c3cnc(OC(F)(F)C(F)(F)F)cn3)ccc2F)N=C(N)CO[C@H]1C(F)(F)F | – | – | 30.2 | 49 | – | – | –
